Test results from US11352362B2, “Polymorph of rucaparib camsylate” (SHANGHAI BEGREAT PHARMATECH, priority 2018, dated 2022).
Structures can show the parent of a compound that is named as a salt.

What was measured:
[1] = Solubility of rucaparib camsylate crystal forms in simulated gastric juice; assay type: physicochemical; details: for Solubility under low pH conditions: such as pH 1.2; for Solubility in SGF: about 1 mg in 1 mL, shaking 20 min, filtered, HPLC
Procedure: Determination of the solubility of rucaparib camsylate in simulated gastric juice. Weigh about 1 mg of the powder of Form A, Form B, Form C and Form D of rucaparib camsylate in a 2-mL tube, then add 1 mL of simulated gastric juice (Prepared by adding diluted hydrochloric acid 16.4 ml, 800 ml of water and 10 g of pepsin. After shaking, add water to volume of 1000 ml). After shaking the suspension for 20 min, it was filtered through a needle filter to obtain a clear solution. The rucaparib camsylate content in the solution was analyzed by HPLC method.

[2] = Stress stability of crystal form D (XRPD evaluation); assay type: physicochemical
Procedure: In order to evaluate the physical stability of the crystal form D, experiments on the stress stability for the crystal form D were performed. The physical stability of the crystal form D under high temperature, high humidity and light stress conditions was investigated. The experimental conditions of the stress stability are as follows: [table] The crystal form D was placed in the above stress conditions. After sampling at the time point, the stability sample was evaluated by XRPD.

Row | Solubility under low pH conditions [1] | Solubility in SGF ([1]; simulated gastric juice) [µg/mL] | Solubility at 20 minutes compared with existing crystalline forms A, B and C ([1]; simulated gastric juice, low pH, 20 minutes) | Crystal form by XRPD after stress ([2]; Elevate temperature 60° C., 5 day) | Crystal form by XRPD after stress ([2]; Elevate temperature 60° C., 10 day) | Crystal form by XRPD after stress ([2]; High humidity 92.5% RH, 5 day) | Crystal form by XRPD after stress ([2]; High humidity 92.5% RH, 10 day) | Crystal form by XRPD after stress ([2]; Light stress 4500 lux, 5 day) | Crystal form by XRPD after stress ([2]; Light stress 4500 lux, 10 day) | Physical stability under stress conditions ([2]; high temperature, high humidity and light stress conditions) | Compound
1 | low solubility | 130 | – | – | – | – | – | – | – | – | CNCc1ccc(-c2[nH]c3cc(F)cc4c3c2CCNC4=O)cc1 [Form B, 8-fluoro-2-{4-[(methylamino)methyl]phenyl}-1,3,4,5-tetrahydro-6H-azepino[5,4,3-cd]indol-6-one ((1S,4R)-7,7-dimethyl-2-oxobicyclo[2.2.1]hept-1-yl) methanesulfonic acid salt]
2 | low solubility | 110 | – | – | – | – | – | – | – | – | CNCc1ccc(-c2[nH]c3cc(F)cc4c3c2CCNC4=O)cc1 [Form C, 8-fluoro-2-{4-[(methylamino)methyl]phenyl}-1,3,4,5-tetrahydro-6H-azepino[5,4,3-cd]indol-6-one ((1S,4R)-7,7-dimethyl-2-oxobicyclo[2.2.1]hept-1-yl) methanesulfonic acid salt]
3 | low solubility | 100 | – | – | – | – | – | – | – | – | CNCc1ccc(-c2[nH]c3cc(F)cc4c3c2CCNC4=O)cc1 [Form A, 8-fluoro-2-{4-[(methylamino)methyl]phenyl}-1,3,4,5-tetrahydro-6H-azepino[5,4,3-cd]indol-6-one ((1S,4R)-7,7-dimethyl-2-oxobicyclo[2.2.1]hept-1-yl) methanesulfonic acid salt]
4 | – | 310 | significantly higher | Form D | Form D | Form D | Form D | Form D | Form D | stable | CNCc1ccc(-c2[nH]c3cc(F)cc4c3c2CCNC4=O)cc1 [Form D, 8-fluoro-2-{4-[(methylamino)methyl]phenyl}-1,3,4,5-tetrahydro-6H-azepino[5,4,3-cd]indol-6-one ((1S,4R)-7,7-dimethyl-2-oxobicyclo[2.2.1]hept-1-yl) methanesulfonic acid salt]
